From patent publication US4868299A, “Antibacterially active pyrido-benzothiazine derivatives with long-term action” (Mediolanum Farmaceutici Srl, priority 1986, dated 1989)
≈ marks a conversion by molar mass, not a printed value. Read-outs that look alike come from different tables or passages of the source.

Experiments:
[1] = urine concentrations after oral administration to the rat (HPLC); format: in vivo; settings: 50 mg/kg oral; for Cumulative excretion (urine) / Volume excreted (urine): pool of 6 rats
Procedure: (§1) The compound (X) was administered orally at a dose of 50 mg/kg to the rat after which the plasma, tissue and urine concentrations were evaluated by the HPLC method, as described hereinafter.
The urine was collected at various times during the 24 hours following administration. The results relative to urine concentrations are summarised in Table 2, and refer to a urine pool obtained form 6 female rates having a weight of about 100 g.
(§2) The HPLC determination was made by the following procedure: 2 mg of N-dimethyldiarepam (internal standard), 1 ml of citrate buffer (0.1 M, pH 6.2) and 6 ml of chloroform are added to 1 ml of plasma or to 1 ml of supernatant obtained after centrifuging a homogenized tissue in 3 volumes of physiological solution at 2000 r.p.m. for 5 minutes.
(§3) After agitating for 20 minutes and centrifuging at 3000 r.p.m. for 5 minutes, the organic phase is separated and dried over a water bath at 70° C.
(§4) The residue is collected in 50 μl of methanol, and 20 μl of the solution are injected into a HPLC (Gilson) column under the following conditions: column μ Bondopak C-18 ([…], wavelength 245 nm), flow: 0.7 ml/min, mobile phase: (A) 0.1% acetic acid and (B) methanol, gradient: […]

[2] = plasma and tissue concentrations after oral administration to the rat (HPLC); format: in vivo; settings: for concentration at 0.5 h: 0.5 hours after treatment; for concentration at 4 h: 4 hours after treatment; for concentration at 15 h: 15 hours after treatment
Procedure: as §1
The plasma and tissues (heart, kidney and liver) were withdrawn from groups of 3 female rats at various times after oral administration.
as §2, §3, §4

Proteus 966 = assay: in-vitro antibacterial activity, MIC by agar dilution (multipoint inoculator); format: cell-based; settings: Proteus 966; 18 hours at 37° C; read-out: Minimum Inhibiting Concentration (MIC)
Procedure: (§5) The antibacterial activity of the compounds according to the invention was determined "in vitro" on pathogenic strains of recent clinical isolation by testing agar dilutions using a multipoint inoculator (Denley Techn. Ltd., England).
(§6) The culture medium used is isosensitest agar (Oxoid), in a quantity of 20 ml in a Petri capsule. The compounds to be tested were dissolved at various dilutions and incorporated in agar.
(§7) The bacterial inoculum, originating from an overnight broth and containing 10^5 colony-forming units per point, was inoculated by a multipoint inoculator. The bacterial growth was evaluated after 18 hours of incubation at 37° C.
(§8) For comparison purposes, the results relative to compound (XIII) and to nalidixic acid are also reported.

Enterobacter 041 = assay: as above; format: cell-based; settings: Enterobacter 041; 18 hours at 37° C; read-out: Minimum Inhibiting Concentration (MIC)
Procedure: as §5, §6, §7, §8

Pseudomonas 19 = assay: as above; format: cell-based; settings: Pseudomonas 19; 18 hours at 37° C; read-out: Minimum Inhibiting Concentration (MIC)
Procedure: as §5, §6, §7, §8

Enterobacter 2653 = assay: as above; format: cell-based; settings: Enterobacter 2653; 18 hours at 37° C; read-out: Minimum Inhibiting Concentration (MIC)
Procedure: as §5, §6, §7, §8

Escherichia 15 = assay: as above; format: cell-based; settings: 18 hours at 37° C, read-out: Minimum Inhibiting Concentration (MIC)
Procedure: as §5, §6, §7, §8

Staphylococcus 7 = assay: as above; format: cell-based; settings: Staphylococcus 7; 18 hours at 37° C; read-out: Minimum Inhibiting Concentration (MIC)
Procedure: as §5, §6, §7, §8

Serratia 10 = assay: as above; format: cell-based; settings: 18 hours at 37° C, read-out: Minimum Inhibiting Concentration (MIC)
Procedure: as §5, §6, §7, §8

Citrobacter 120 = assay: as above; format: cell-based; settings: Citrobacter 120; 18 hours at 37° C; read-out: Minimum Inhibiting Concentration (MIC)
Procedure: as §5, §6, §7, §8

Staphylococcus 29 = assay: as above; format: cell-based; settings: Staphylococcus 29; 18 hours at 37° C; read-out: Minimum Inhibiting Concentration (MIC)
Procedure: as §5, §6, §7, §8

Citrobacter 118 = assay: as above; format: cell-based; settings: Citrobacter 118; 18 hours at 37° C; read-out: Minimum Inhibiting Concentration (MIC)
Procedure: as §5, §6, §7, §8

Escherichia 963 = assay: as above; format: cell-based; settings: Escherichia 963; 18 hours at 37° C; read-out: Minimum Inhibiting Concentration (MIC)
Procedure: as §5, §6, §7, §8

Pseudomonas 22437 = assay: as above; format: cell-based; settings: 18 hours at 37° C, read-out: Minimum Inhibiting Concentration (MIC)
Procedure: as §5, §6, §7, §8

Klebsiella 4 = assay: as above; format: cell-based; settings: Klebsiella 4; 18 hours at 37° C; read-out: Minimum Inhibiting Concentration (MIC)
Procedure: as §5, §6, §7, §8

Proteus 25 = assay: as above; format: cell-based; settings: Proteus 25; 18 hours at 37° C; read-out: Minimum Inhibiting Concentration (MIC)
Procedure: as §5, §6, §7, §8

Serratia 9 = assay: as above; format: cell-based; settings: Serratia 9; 18 hours at 37° C; read-out: Minimum Inhibiting Concentration (MIC)
Procedure: as §5, §6, §7, §8

[3] = rat, 50 mg/kg oral, heart, read-out: Heart concentration
[4] = rat, 50 mg/kg oral, kidney, read-out: Kidney concentration
[5] = rat, 50 mg/kg oral, liver, read-out: Liver concentration
[6] = rat, 50 mg/kg oral, plasma, read-out: Plasma concentration

CC1Cn2cc(C(=O)O)c(=O)c3cc(F)c(N4CCN(C)CC4)c(c32)S1 (centres unmarked) [(X), 9-fluoro-10[N(N'-methyl)piperazinyl]-2-methyl-7-oxo-2,3-dihydro-7H-pyrido[1,2,3-de][1,4]benzothiazine-6-carboxylic acid]
urine concentrations, in words [1]: lasting and high
Cumulative excretion (urine) ([1]; 0-1 hours after treatment): 0.50 mg
Volume excreted (urine) ([1]; 0-1 hours after treatment): 5.5 mL
Cumulative excretion (urine) ([1]; 1-2 hours after treatment): 1.33 mg
Volume excreted (urine) ([1]; 1-2 hours after treatment): 3.2 mL
Cumulative excretion (urine) ([1]; 2-4 hours after treatment): 2.05 mg
Volume excreted (urine) ([1]; 2-4 hours after treatment): 7.2 mL
Cumulative excretion (urine) ([1]; 4-8 hours after treatment): 3.13 mg
Volume excreted (urine) ([1]; 4-8 hours after treatment): 6.0 mL
Cumulative excretion (urine) ([1]; 8-24 hours after treatment): 8.17 mg
Volume excreted (urine) ([1]; 8-24 hours after treatment): 28.0 mL
concentration at 1 h ([1]; urine, 0-1 hours after treatment): 90 µg/mL
concentration at 2 h ([1]; urine, 1-2 hours after treatment): 260 µg/mL
concentration at 4 h ([1]; urine, 2-4 hours after treatment): 100 µg/mL
concentration at 8 h ([1]; urine, 4-8 hours after treatment): 180 µg/mL
concentration at 24 h ([1]; urine, 8-24 hours after treatment): 180 µg/mL
dose excreted at 24 h ([1]; urine, within 24 hours, of the orally administered dose, read-out: percentage urine excretion of the non-metabolized product): ~27%
absorption after oral administration, in words ([2]; rat, 50 mg/kg oral): rapidly absorbed after oral administration to induce high tissue levels
heart, kidney and liver concentrations relative to plasma, in words ([2]; rat, 50 mg/kg oral): always greater than those observed in the plasma
tissue bioavailability, in words ([2]; rat, 50 mg/kg oral): excellent tissue bioavailability
concentrations relative to the MIC values, in words ([2]; rat, 50 mg/kg oral, 15 hours after administration): high concentrations relative to the MIC values are still present
concentration at 0.5 h [2, 3]: 19200 ng/g
concentration at 4 h [2, 3]: 18600 ng/g
concentration at 15 h [2, 3]: 4630 ng/g
concentration at 0.5 h [2, 4]: 34400 ng/g
concentration at 4 h [2, 4]: 38700 ng/g
concentration at 15 h [2, 4]: 5900 ng/g
concentration at 0.5 h [2, 5]: 62900 ng/g
concentration at 4 h [2, 5]: 34300 ng/g
concentration at 15 h [2, 5]: 9370 ng/g
concentration at 0.5 h [2, 6]: 10.2 µg/mL
concentration at 4 h [2, 6]: 8.1 µg/mL
concentration at 15 h [2, 6]: 3.5 µg/mL
MIC (Proteus 966): 8 µg/mL (≈ 21.2 µM)
MIC (Enterobacter 041): 0.25 µg/mL (≈ 0.662 µM)
MIC (Pseudomonas 19): 16 µg/mL (≈ 42.4 µM)
MIC (Enterobacter 2653): 0.5 µg/mL (≈ 1.32 µM)
MIC (Escherichia 15): 0.25 µg/mL (≈ 0.662 µM)
MIC (Staphylococcus 7): 2 µg/mL (≈ 5.3 µM)
MIC (Serratia 10): 2 µg/mL (≈ 5.3 µM)
MIC (Citrobacter 120): 0.25 µg/mL (≈ 0.662 µM)
MIC (Staphylococcus 29): 2 µg/mL (≈ 5.3 µM)
MIC (Citrobacter 118): 0.5 µg/mL (≈ 1.32 µM)
MIC (Escherichia 963): 2 µg/mL (≈ 5.3 µM)
MIC (Pseudomonas 22437): 16 µg/mL (≈ 42.4 µM)
MIC (Klebsiella 4): 0.25 µg/mL (≈ 0.662 µM)
MIC (Proteus 25): 8 µg/mL (≈ 21.2 µM)
MIC (Serratia 9): 8 µg/mL (≈ 21.2 µM)

CC1Cn2cc(C(=O)O)c(=O)c3cc(F)c(N4CCNCC4)c(c32)S1 (centres unmarked) [(XI), 9-fluoro-10[N-piperazinyl]-2-methyl-7-oxo-2,3-dihydro-7H-pyrido[1,2,3-de][1,4]benzothiazine-6-carboxylic acid]
results of the tests operating in accordance with the described procedures, in words ([2]; rat, in vivo): analogous to the tests carried out with compound (X)

CC1Cn2cc(C(=O)O)c(=O)c3cc(F)c(N4CCCC4)c(c32)S1 (centres unmarked) [(XII), 9-fluoro-10[N-pyrrolidine]-2-methyl-7-oxo-2,3-dihydro-7H-pyrido[1,2,3-de][1,4]benzothiazine-6-carboxylic acid]
results of the tests operating in accordance with the described procedures, in words ([2]; compared with compound (X)): analogous to the tests carried out with compound (X)
MIC (Proteus 966): 2 µg/mL (≈ 5.74 µM)
MIC (Enterobacter 041): 2 µg/mL (≈ 5.74 µM)
MIC (Pseudomonas 19): 2 µg/mL (≈ 5.74 µM)
MIC (Enterobacter 2653): 16 µg/mL (≈ 45.9 µM)
MIC (Escherichia 15): 2 µg/mL (≈ 5.74 µM)
MIC (Staphylococcus 7): 0.25 µg/mL (≈ 0.718 µM)
MIC (Serratia 10): 2 µg/mL (≈ 5.74 µM)
MIC (Citrobacter 120): 2 µg/mL (≈ 5.74 µM)
MIC (Staphylococcus 29): 0.25 µg/mL (≈ 0.718 µM)
MIC (Citrobacter 118): 16 µg/mL (≈ 45.9 µM)
MIC (Escherichia 963): 16 µg/mL (≈ 45.9 µM)
MIC (Pseudomonas 22437): 16 µg/mL (≈ 45.9 µM)
MIC (Klebsiella 4): 2 µg/mL (≈ 5.74 µM)
MIC (Proteus 25): 2 µg/mL (≈ 5.74 µM)
MIC (Serratia 9): 16 µg/mL (≈ 45.9 µM)
